Measurements as given in patent US10280170B2, “Substituted 4,5,6,7-tetrahydro-pyrazolo[1,5-a]pyrazine derivatives and 5,6,7,8-tetrahydro-4H-pyrazolo[1,5-a][1,4]diazepine derivatives as Ros1 inhibitors” (Janssen Pharmaceutica NV, priority 2014, dated 2019).
Where two headings read alike, the source gives them in different places.

What was measured:
[1] = target: T1, Ros1 enzyme (Homo sapiens, UniProt P08922); experiment: Ros1 enzymatic assay; assay type: biochemical; settings: Ros1 enzymatic assay; read-out: ROS1 pIC50 (converted)
T1 construct: 0.5 μg/ml Ros1 enzyme
Method: Compounds were spotted onto white 384-well Proxiplate plus plates (Perkin Elmer) to which 5 μl of enzyme mix (0.5 μg/ml Ros1 enzyme, 50 mM Tris-HCl pH7.5, 1 mM EGTA, 10 mM MgCl2, 0.01% Tween-20) and 5 μl of substrate mix (6 μg/ml IRS-Tide [American Peptide Company], 20 μM ATP, 13.33 μCi/ml ATP (adenosine 5′-triphosphate) P^33, 50 mM Tris-HCl pH7.5, 1 mM EGTA (ethylene glycol-bis(2-aminoethylether)-N,N,N′,N′-tetraacetic acid), 10 mM MgCl2, 0.01% Tween-20) were added. After incubation for 120 minutes at room temperature, 10 μl of stop reaction buffer (5 mM EDTA, 50 μM ATP, 0.1% BSA (bovine serum albumin), 0.1% Triton X-100, 50 mM Tris-HCl pH7.5, 1 mM EGTA, 10 mM MgCl2, 0.01% Tween-20) containing 2 mg/ml streptavidin coupled polystyrene imaging beads (Amersham Biosciences) was added and incubated for 15 minutes at room temperature. Plates were centrifuged for 3 minutes at 1500 rpm and signals detected in a LEADseeker imaging system (GE).

[2] = target: Ba/F3 cells containing Ros1 with a mutation at the gatekeeper residue (L2026M) (Homo sapiens, UniProt P08922, L2026M, cells depend on it, form not given); experiment: Ba/F3-Ros1 cell proliferation assay, L2026M gatekeeper mutant; assay type: cell-based, murine; settings: without IL-3
Method: (§1) Ba/F3-Ros1 Cell Proliferation Assay
(§2) This assay was carried out with Ba/F3 cells containing three different versions of Ros1: the wild-type protein, protein with a mutation at the gatekeeper residue (L2026M), and protein with a mutation identified in a tumor from a patient that became resistant to crizotinib (Xalkori®) treatment (G2032R). Compounds were solubilized in 100% DMSO (dimethyl sulfoxide) and sprayed into polystyrene, tissue culture treated 384-well plates. A 50 μl volume of cell culture medium (phenol red free RPMI-1640, 10% FBS (fetal bovine serum), 2 mM L-Glutamine) containing 20000 Ba/F3-Ros1 cells was added to each well and the plates were placed in an incubator at 37° C. and 5% CO2. After 24 hours, 10 μl of Alamar Blue solution (0.5 mM K3Fe(CN)6, 0.5 mM K4Fe(CN)6, 0.15 mM Resazurin and 100 mM Phosphate Buffer) was added to the wells, incubated for 4 hours at 37° C. and 5% CO2 before RFU's (Relative Fluorescence Units) (ex. 540 nm., em. 590 nm.) were measured in a fluorescence plate reader.

[3] = target: T2, Ba/F3 cells containing Ros1 wild-type protein (Homo sapiens, UniProt P08922, cells depend on it, form not given); experiment: Ba/F3-Ros1 cell proliferation assay, wild-type Ros1; assay type: cell-based, murine; settings: without IL-3
T2 construct: The background only speaks of 'a number of different unrelated proteins' and names SLC34A2-ROS1 for HCC78 cells
Method: as §1, §2

[4] = system: Ba/F3 cells containing Ros1 wild-type protein + IL-3; experiment: Ba/F3-Ros1 cell proliferation counter-screen, wild-type protein in the presence of 10 ng/ml murine IL-3; assay type: cell-based; settings: Mus musculus, BaF3, 24 h, read-out: BaF3-ROS1 + IL3 pIC50 (converted)
Method: as §2
As a counter-screen the same experiment was performed for the wild-type protein in the presence of 10 ng/ml murine IL-3.

[5] = system: HCC78 non-small cell lung cancer cells; experiment: HCC78 cell proliferation assay; assay type: cell-based
Method: HCC78 Cell Proliferation Assay
Approximately 1000 HCC78 non-small cell lung cancer cells in 180 μl of cell culture medium (RPMI-1640, 10% FBS, 2 mM L-Glutamine, 10 mM Hepes, 1 mM sodium pyruvate, 4.5 g/L glucose, 1.5 g/L sodium bicarbonate, 25 μg/ml Gentamycin) were seeded in each well of a 96-well polystyrene, tissue-culture treated plate and incubated at 37° C. and 5% CO2. After 24 hours, compounds were diluted in cell culture medium from which 20 μl was added to the wells containing cells and incubated for 4 days at 37° C. and 5% CO2. A 5 mg/ml solution of the tetrazolium dye MTT was prepared in PBS (phosphate-buffered saline) and 25 μl was added to each well. After 2 hours the medium was removed and replaced by 125 μL of 4/1 DMSO/glycine buffer (0.1M glycine, 0.1M NaCl, pH 10.5) before absorbance was determined at 538 nm.

[6] = counter-screen, wild-type, 10 ng/ml murine IL-3

T1 sequence (P08922 28-2347): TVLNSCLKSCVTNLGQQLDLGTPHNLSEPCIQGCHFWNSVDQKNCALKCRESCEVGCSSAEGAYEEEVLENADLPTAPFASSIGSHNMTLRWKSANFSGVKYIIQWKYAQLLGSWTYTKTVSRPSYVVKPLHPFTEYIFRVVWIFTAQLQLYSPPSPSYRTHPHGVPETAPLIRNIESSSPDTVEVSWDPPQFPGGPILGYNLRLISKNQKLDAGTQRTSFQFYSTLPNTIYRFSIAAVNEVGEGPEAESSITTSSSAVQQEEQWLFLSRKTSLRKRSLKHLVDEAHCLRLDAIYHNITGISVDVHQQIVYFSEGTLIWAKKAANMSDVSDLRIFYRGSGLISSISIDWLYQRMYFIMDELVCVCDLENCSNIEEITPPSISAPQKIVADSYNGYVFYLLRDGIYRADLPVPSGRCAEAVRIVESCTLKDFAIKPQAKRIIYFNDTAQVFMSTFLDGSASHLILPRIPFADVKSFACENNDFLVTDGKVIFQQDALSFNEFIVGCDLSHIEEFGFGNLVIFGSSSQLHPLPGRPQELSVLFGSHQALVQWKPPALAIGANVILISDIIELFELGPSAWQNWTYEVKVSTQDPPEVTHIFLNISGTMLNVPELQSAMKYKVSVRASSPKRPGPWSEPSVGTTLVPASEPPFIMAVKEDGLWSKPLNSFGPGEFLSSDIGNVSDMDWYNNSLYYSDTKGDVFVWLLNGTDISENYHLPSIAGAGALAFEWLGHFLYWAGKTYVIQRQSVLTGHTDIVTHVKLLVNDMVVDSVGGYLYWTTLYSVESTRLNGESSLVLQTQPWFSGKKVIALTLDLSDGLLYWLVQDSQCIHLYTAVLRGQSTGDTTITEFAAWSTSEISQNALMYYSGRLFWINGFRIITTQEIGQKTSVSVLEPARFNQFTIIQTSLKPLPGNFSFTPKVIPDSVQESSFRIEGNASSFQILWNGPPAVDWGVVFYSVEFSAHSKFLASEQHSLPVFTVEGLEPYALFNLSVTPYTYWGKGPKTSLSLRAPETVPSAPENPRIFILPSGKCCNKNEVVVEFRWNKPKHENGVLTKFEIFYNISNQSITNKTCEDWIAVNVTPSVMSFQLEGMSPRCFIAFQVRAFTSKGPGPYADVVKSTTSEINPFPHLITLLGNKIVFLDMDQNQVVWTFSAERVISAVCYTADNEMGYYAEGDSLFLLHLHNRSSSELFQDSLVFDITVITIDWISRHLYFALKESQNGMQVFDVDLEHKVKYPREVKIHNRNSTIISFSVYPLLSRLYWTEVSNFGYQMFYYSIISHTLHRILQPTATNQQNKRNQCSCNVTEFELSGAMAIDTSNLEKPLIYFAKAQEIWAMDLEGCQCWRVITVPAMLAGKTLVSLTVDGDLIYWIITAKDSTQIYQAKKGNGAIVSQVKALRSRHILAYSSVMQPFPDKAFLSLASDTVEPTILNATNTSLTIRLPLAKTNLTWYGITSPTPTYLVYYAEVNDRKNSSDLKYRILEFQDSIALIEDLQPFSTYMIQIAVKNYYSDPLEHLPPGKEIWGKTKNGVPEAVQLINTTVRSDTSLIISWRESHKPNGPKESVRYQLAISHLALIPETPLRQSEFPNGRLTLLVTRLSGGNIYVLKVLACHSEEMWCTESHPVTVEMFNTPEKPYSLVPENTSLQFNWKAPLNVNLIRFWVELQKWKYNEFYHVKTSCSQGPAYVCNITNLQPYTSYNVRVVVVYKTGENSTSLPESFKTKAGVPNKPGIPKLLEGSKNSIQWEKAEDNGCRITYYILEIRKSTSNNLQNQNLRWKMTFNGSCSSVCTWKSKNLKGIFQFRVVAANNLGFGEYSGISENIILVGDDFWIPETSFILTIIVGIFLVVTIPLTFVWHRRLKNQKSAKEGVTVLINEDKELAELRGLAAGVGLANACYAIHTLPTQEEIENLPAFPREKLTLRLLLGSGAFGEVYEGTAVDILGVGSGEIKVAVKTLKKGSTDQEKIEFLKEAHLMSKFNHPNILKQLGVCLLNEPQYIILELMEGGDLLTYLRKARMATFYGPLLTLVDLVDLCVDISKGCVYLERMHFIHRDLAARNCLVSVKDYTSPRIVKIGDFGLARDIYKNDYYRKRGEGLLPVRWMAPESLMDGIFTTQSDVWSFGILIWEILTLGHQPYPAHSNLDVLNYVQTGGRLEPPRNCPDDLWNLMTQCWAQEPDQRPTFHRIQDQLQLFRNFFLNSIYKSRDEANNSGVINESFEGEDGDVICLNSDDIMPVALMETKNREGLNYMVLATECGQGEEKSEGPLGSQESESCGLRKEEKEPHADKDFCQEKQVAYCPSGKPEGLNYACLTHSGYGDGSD
T2 sequence (P08922 whole entry, stated change not applied): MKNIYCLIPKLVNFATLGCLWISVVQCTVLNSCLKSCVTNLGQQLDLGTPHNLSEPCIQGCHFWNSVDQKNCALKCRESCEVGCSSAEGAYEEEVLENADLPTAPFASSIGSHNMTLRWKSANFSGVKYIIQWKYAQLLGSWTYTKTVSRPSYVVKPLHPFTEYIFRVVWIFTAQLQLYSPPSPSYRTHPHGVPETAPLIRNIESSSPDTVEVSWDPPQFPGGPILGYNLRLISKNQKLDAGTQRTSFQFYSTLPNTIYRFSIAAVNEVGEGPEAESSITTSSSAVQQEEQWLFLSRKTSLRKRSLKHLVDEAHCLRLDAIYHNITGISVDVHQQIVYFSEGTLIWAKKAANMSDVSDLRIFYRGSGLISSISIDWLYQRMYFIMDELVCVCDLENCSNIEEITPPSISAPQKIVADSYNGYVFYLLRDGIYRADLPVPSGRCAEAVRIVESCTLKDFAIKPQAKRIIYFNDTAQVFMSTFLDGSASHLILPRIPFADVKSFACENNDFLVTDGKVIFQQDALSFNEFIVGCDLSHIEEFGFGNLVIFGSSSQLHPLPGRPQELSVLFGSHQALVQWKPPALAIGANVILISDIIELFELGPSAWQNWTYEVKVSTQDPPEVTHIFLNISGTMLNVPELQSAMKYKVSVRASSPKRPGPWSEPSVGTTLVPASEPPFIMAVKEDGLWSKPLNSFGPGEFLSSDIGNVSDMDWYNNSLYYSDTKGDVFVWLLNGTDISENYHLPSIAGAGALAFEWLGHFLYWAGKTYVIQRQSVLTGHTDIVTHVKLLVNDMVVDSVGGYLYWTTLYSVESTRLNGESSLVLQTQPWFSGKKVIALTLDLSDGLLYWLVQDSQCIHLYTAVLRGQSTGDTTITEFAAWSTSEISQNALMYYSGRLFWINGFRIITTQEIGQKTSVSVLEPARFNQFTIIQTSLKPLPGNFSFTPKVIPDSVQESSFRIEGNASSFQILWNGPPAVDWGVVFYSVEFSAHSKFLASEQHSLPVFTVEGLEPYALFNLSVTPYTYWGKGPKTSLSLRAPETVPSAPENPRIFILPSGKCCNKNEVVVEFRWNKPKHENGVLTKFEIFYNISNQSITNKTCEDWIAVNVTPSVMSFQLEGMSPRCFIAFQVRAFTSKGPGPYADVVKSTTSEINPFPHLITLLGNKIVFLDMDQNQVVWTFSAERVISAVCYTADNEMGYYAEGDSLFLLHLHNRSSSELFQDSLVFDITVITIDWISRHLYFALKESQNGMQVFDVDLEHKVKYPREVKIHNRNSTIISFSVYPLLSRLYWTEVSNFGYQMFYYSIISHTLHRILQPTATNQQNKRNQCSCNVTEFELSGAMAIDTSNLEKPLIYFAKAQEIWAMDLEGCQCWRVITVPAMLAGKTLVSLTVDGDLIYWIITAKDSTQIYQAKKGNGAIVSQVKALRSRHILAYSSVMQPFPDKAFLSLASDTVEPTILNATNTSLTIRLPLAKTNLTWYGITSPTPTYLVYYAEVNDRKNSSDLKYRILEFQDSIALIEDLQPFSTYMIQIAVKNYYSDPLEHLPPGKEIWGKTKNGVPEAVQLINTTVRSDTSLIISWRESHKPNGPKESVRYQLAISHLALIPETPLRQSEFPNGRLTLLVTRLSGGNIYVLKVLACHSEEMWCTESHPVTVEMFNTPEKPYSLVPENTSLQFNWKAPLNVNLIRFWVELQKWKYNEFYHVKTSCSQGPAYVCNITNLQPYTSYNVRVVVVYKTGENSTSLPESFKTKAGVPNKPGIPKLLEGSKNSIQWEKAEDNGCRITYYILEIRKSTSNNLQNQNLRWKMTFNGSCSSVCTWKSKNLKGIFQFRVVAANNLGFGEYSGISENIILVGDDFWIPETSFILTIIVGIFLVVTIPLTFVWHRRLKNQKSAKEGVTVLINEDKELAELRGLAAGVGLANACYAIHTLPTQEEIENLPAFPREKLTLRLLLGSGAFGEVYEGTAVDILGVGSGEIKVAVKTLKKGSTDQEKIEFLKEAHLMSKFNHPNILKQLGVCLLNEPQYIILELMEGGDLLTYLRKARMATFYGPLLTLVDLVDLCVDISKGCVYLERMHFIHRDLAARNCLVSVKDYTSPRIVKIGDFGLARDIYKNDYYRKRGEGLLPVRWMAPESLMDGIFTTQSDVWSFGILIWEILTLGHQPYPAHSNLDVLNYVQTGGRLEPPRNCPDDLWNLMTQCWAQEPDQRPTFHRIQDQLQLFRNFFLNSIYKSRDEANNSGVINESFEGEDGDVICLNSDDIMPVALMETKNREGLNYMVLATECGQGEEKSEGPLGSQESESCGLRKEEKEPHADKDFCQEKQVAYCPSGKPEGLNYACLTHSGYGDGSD
Sequence of Ba/F3 cells containing Ros1 with a mutation at the gatekeeper residue (L2026M) (P08922 whole entry L2026M, form open): as the sequence (P08922 whole entry, stated change not applied) above, with L2026M counted along it

HCC-78 PROL pEC50 ([5]; HCC78 cells, 4 days, MTT)	SMILES	melting point [°C]	IC50 [1] [nM]	Ba/F3 Ros1 L2026M (-IL-3) pIC50 [2]	BaF3-ROS1-IL3 pIC50 [3]	CC50 [4] [nM]	CC50 [4, 6] [nM]	EC50 ([5]; Homo sapiens, HCC78, 96 h, read-out: HCC-78 PROL pEC50 (converted)) [nM]
	CC(C)c1ccc(COc2ccc(-c3c(-c4ccncc4)nn4c3C(=O)N(CCO)CC4)cc2)c(F)c1F [Compound 100]	172	200	6.3	6.9	> 10000		
	CC(C)c1ccc(C2Oc3ccc(-c4c(-c5ccncc5)nn5c4C(=O)NCC5)cc3NC2=O)cc1 (stereo not shown) [Compound 231]	291	794	5.7	6.4		> 10000	
	CC(C)c1ccc(COc2ccc(-c3c(-c4ccncc4)nn4c3C(=O)N(CC(O)CO)CC4)cc2)c(F)c1F (stereo not shown) [Compound 102]	191	794	6.4	6.7			
	CC(C)c1ccc(COc2ccc(-c3c(-c4ccncc4)nn4c3C(=O)N(CCN(C)C)CC4)cc2)cc1 [Compound 61]			5.9	6.3	> 10000		631
	CC(C)c1ccc(COc2ccc(-c3c(-c4ccncc4)nn4c3C(=O)N(CCO)CC4)cc2)cc1CCO [Compound 83]	176	20	7.2	7.6	> 10000		
	O=C1NCCn2nc(-c3ccncn3)c(-c3ccc(OCc4ccc(C5CC5)nc4)cc3)c21 [Compound 168]	254	398	6.2	6.5	> 10000		
	COc1cccc(COc2ccc(-c3c(-c4ccncc4)nn4c3C(=O)NCC4)cc2)c1 [Compound 113]	242	794		6.0		> 10000	
	CC(C)c1ccc(C(C)Oc2ccc(-c3c(-c4ccncc4)nn4c3C(=O)NCC4)cc2)cc1 (stereo not shown) [Compound 143]	217	1000	6.0	6.4	5010		
	CC(C)c1ccc(COc2ccc(-c3c(-c4ncnc5[nH]ccc45)nn4c3C(=O)NCC4)cc2)cc1 [Compound 222]	238	200		7.0	> 10000		
	CC(C)c1ccc(COc2ccc(-c3c(-c4ccncc4)nn4c3CNC(=O)C4)cc2)cc1 [Compound 237]	281	794		6.8	> 10000		
	CC(CO)c1ccc(COc2ccc(-c3c(-c4ccncc4)nn4c3C(=O)NCC4)cc2)cc1 (stereo not shown) [Compound 127]	259	398		6.6	> 10000		
	O=C1NCCn2nc(-c3ccncn3)c(-c3ccc(OCc4ccc(C5CC5)cc4)cc3)c21 [Compound 166]	268	63.1		6.9		> 10000	
<5.5	CC(C)c1ccc(C(C)Oc2ccc(-c3c(-c4ccncc4)nn4c3C(=O)N(CCO)CC4)cc2)cc1 (stereo not shown) [Compound 145]		3160	5.1	5.8			
	c1cc(-c2nn3c(c2-c2ccc(OCc4ccc(C5CC5)nc4)cc2)CNCC3)ccn1 [Compound 186]	195	1000		6.2		> 10000	
	CC(C)c1ccc(COc2ccc(-c3c(-c4ccncc4)nn4c3C(=O)N(C(=O)OC(C)(C)C)CC4)cc2)cc1 [Compound 70]	147	3160	6.1	6.4		> 10000	
	O=C1c2c(-c3ccc(OCc4ccc(C5CC5)nc4)cc3)c(-c3ccncn3)nn2CCN1CCO [Compound 169]	143	1000	5.6	6.2	> 10000		
	CC(C)c1cccc(COc2ccc(-c3c(-c4ccncc4)nn4c3C(=O)NCC4)cc2)c1 [Compound 110]	268	126		6.9	> 10000		
	CC(C)c1ccc(COc2cc(F)c(-c3c(-c4ccncc4)nn4c3C(=O)NCC4)c(F)c2)cc1 [Compound 17]	235	501		6.8	> 10000		
	COc1ccc(COc2ccc(-c3c(-c4ccncn4)nn4c3C(=O)NCC4)cc2)cc1 [Compound 157]	264	1000		6.1	> 10000		
	CC(C)c1ccc(COc2ccc(-c3c(-c4ccncc4)nn4c3C(=O)N(CC(O)CO)CC4)cc2)c(F)c1F (stereo not shown) [Compound 101]	192	398	6.4	6.7		> 10000	
	CC(C)c1ccc(COc2ccc(-c3c(-c4ccncc4)nn4c3C(=O)N(C)CC4)cn2)cc1 [Compound 211]	57	31.6	7.3	7.3		> 10000	
	COCCOc1cc(COc2ccc(-c3c(-c4ccncc4)nn4c3C(=O)NCC4)cc2)ccc1C [Compound 104]	190	1260		6.1	> 10000		
	CC(C)c1ccc(COc2ccc(-c3c(-c4ccncc4)nn4c3C(=O)N(CCS(C)(=O)=O)CC4)cn2)cc1 [Compound 213]	200	100	6.4	7.0		> 10000	
	COc1ncc(COc2ccc(-c3c(-c4ccncc4)nn4c3C(=O)NCC4)cc2)cn1 [Compound 229]	248	> 10000		<5		> 10000	
	CC(C)NC(=O)CN1CCn2nc(-c3ccncc3)c(-c3ccc(OCc4ccc(C(C)C)cc4)cc3)c2C1 [Compound 178]	188	200		6.6		> 10000	
	[2H]C([2H])(O)C([2H])([2H])N1CCn2nc(-c3ccncc3)c(-c3ccc(OCc4ccc(C(C)C)cc4)cc3)c2C1=O [Compound 67]	179	25.1	7.1	7.9	> 10000		
	CC(C)c1ccc(COc2ccc(-c3c(-c4ccncc4)nn4c3C(=O)N(CCO)CC4)c(F)c2)cc1CCO [Compound 205]	151	7.94	7.5	7.8	> 10000		
	CCC(C)c1ccc(COc2ccc(-c3c(-c4ccncc4)nn4c3C(=O)NCC4)cc2)cc1 (stereo not shown) [Compound 106]	229	25.1		7.5	> 10000		
